Molecular target: LSD1 (Homo sapiens, UniProt O60341)
Test: LSD1 enzymatic assay
Assay type: biochemical
Details: for inhibition at 1 µM: read-out: Inhibition rate (%) at 1 μmol/L against LSD1

Row | SMILES | IC50 [nM] | inhibition at 1 µM [%] | fold stronger LSD1 inhibitory activity than compound 14a
1 | N#Cc1c(Nc2ccc(Cl)cc2)nc(SCc2cn(Cc3ccccc3Cl)nn2)nc1-c1ccccc1 [Compound 10b] | 628 ± 27 | – | –
2 | C#CCSc1nc(Nc2ccc(C)cc2)c(C#N)c(-c2ccccc2)n1 [Compound 7f] | > 64000 | – | –
3 | Cc1ccc(Nc2nc(SCc3cn(CC(=O)NC(=O)Nc4ccccn4)nn3)nc(-c3ccc(Br)cc3)c2C#N)cc1 [Compound 14d] | 3820 ± 582 | 46.3 | –
4 | N#Cc1c(Nc2cccc(Cl)c2)nc(SCc2cn(Cc3ccccc3Cl)nn2)nc1-c1ccccc1 [Compound 10c] | 6310 ± 719 | – | –
5 | Cc1ccc(Nc2nc(SCc3cn(CC(=O)NC(=O)Nc4ccccn4)nn3)nc(-c3ccc(Cl)cc3)c2C#N)cc1 [Compound 14c] | 531 ± 2 | 91.4 | about 3.5 fold

The next lines start with the values.

Row | IC50 [nM] | inhibition at 1 µM [%] | fold stronger LSD1 inhibitory activity than compound 14a | SMILES
6 | > 125000 | – | – | Cc1ccc(Nc2nc(SCC(=O)NC(=O)Nc3ccccn3)nc(-c3ccc(C(C)C)cc3)c2C#N)cc1 [Compound 16b]
7 | 232 ± 2 | – | – | Cc1ccc(-c2nc(SCc3cn(CC(=O)NC(=O)Nc4ccccn4)nn3)nc(Nc3cccc(Cl)c3)c2C#N)cc1 [Compound 14p]

Reference: PMC7563019 (Acta Pharmaceutica Sinica. B, 2020)
